# System: adults with plaque psoriasis
# Assay: Long-term open-label extension study (PSOARING 3): Physician Global Assessment (PGA), treatment episodes, treatment success, remittive effect
# Assay type: in vivo, human
# Procedure: This extension study consisted of up to 40 weeks of treatment and a 4 week, safety follow up period.
# At the completion of the Week 12 visit of the DB, pivotal Phase 3 study, eligibility of the subjects opting to enroll in this extension study was confirmed. Study visits during the treatment period for all subjects occurred every 4 weeks (±3 days). A phone call was performed at Week 2 (Day 15). Unscheduled visits may have occurred, as needed. Subjects who withdrew from this study before Week 40 returned to the study center for an Early Termination visit. The total duration of this extension study participation was 44 weeks. Subjects in this study were treated as follows based on their PGA score from the Week 12 visit in the DB, pivotal Phase 3 study (Study DMVT 505 3001 or Study DMVT 505 3002).
# The PGA was used to assess the primary efficacy endpoint in this study. The PGA is a clinical tool for assessing the current state/severity of a subject's psoriasis at a given time point. It is a static, 5 point, morphological assessment of overall disease severity, as determined by the Investigator, using the clinical characteristics of erythema, scaling, and plaque thickness/elevation as guidelines; higher PGA scores represent more severe disease (0=clear, 1=almost clear, 2=mild, 3=moderate, and 4=severe). The BSA affected was not considered in scoring of the PGA. Variations of the PGA are frequently used in clinical studies because it is a simple assessment, similar to those used in clinical practice. The PGA was performed first, prior to the % BSA, PASI, and LTS assessments.
# Time to event parameters, such as the time from treatment success to subsequent worsening (PGA≥2) or duration of treatment episode, were summarized by the Kaplan Meier product limit method using OC.
# [1] = Baseline PGA = 2, Tapinarof (Pivotal) group
# [2] = Baseline PGA = 2, Vehicle (Pivotal) group
# [3] = Baseline PGA = 3, Tapinarof (Pivotal) group
smiles,measurement,setting,value
"CC(C)c1c(O)cc(/C=C/c2ccccc2)cc1O [Tapinarof, 3,5-Dihydroxy-4-isopropyl-trans-stilbene]","Duration of 1st Success, Mean (SD)",[1],81.3 (71.03) days
same,"Duration of 1st Success, Median",[1],57.0 days
same,"Duration of 2nd Episode, Mean (SD)",[1],78.2 (54.89) days
same,"Duration of 2nd Episode, Median",[1],84.5 days
same,"Duration of 2nd Success, Mean (SD)",[1],27.3 (30.06) days
same,"Duration of 2nd Success, Median",[1],25.0 days
same,"Duration of 3rd Episode, Mean (SD)",[1],1.0 (NE) days
same,"Duration of 3rd Episode, Median",[1],1.0 days
same,"Duration of Last Episode, Mean (SD)",[1],175.4 (98.91) days
same,"Duration of Last Episode, Median",[1],197.0 days
same,"Duration of Last Success, Mean (SD)",[1],76.1 (72.82) days
same,"Duration of Last Success, Median",[1],56.0 days
same,"Total Duration of Treatment Episodes, Mean (SD)",[1],190.1 (90.58) days
same,"Total Duration of Treatment Episodes, Median",[1],223.0 days
same,"Total Duration of Treatment Success, Mean (SD)",[1],84.6 (71.17) days
same,"Total Duration of Treatment Success, Median",[1],78.0 days
same,"Average Duration of Episodes, Mean (SD)",[2],169.8 (89.68) days
same,"Average Duration of Episodes, Median",[2],194.0 days
same,"Average Duration of Treatment Success, Mean (SD)",[2],94.6 (65.57) days
same,"Average Duration of Treatment Success, Median",[2],87.0 days
same,"Duration of 1st Episode, Mean (SD)",[2],173.2 (86.28) days
same,"Duration of 1st Episode, Median",[2],194.0 days
same,"Duration of 1st Success, Mean (SD)",[2],110.8 (72.69) days
same,"Duration of 1st Success, Median",[2],115.5 days
same,"Duration of 2nd Episode, Mean (SD)",[2],46.0 (42.39) days
same,"Duration of 2nd Episode, Median",[2],27.0 days
same,"Duration of 2nd Success, Mean (SD)",[2],34.7 (51.14) days
same,"Duration of 2nd Success, Median",[2],27.5 days
same,"Duration of 3rd Episode, Mean (SD)",[2],42.5 (19.09) days
same,"Duration of 3rd Episode, Median",[2],42.5 days
same,"Duration of 3rd Success, Mean (SD)",[2],29.0 (NE) days
same,"Duration of 3rd Success, Median",[2],29.0 days
same,"Duration of Last Episode, Mean (SD)",[2],166.2 (95.09) days
same,"Duration of Last Episode, Median",[2],194.0 days
same,"Duration of Last Success, Mean (SD)",[2],79.8 (77.74) days
same,"Duration of Last Success, Median",[2],44.5 days
same,"Total Duration of Treatment Episodes, Mean (SD)",[2],184.6 (78.19) days
same,"Total Duration of Treatment Episodes, Median",[2],196.5 days
same,"Total Duration of Treatment Success, Mean (SD)",[2],127.9 (73.01) days
same,"Total Duration of Treatment Success, Median",[2],136.5 days
same,"Average Duration of Episodes, Mean (SD)","Baseline PGA = 3, Overall",178.0 (94.87) days
same,"Average Duration of Episodes, Median","Baseline PGA = 3, Overall",197.0 days
same,"Average Duration of Treatment Success, Mean (SD)","Baseline PGA = 3, Overall",66.4 (56.88) days
same,"Average Duration of Treatment Success, Median","Baseline PGA = 3, Overall",51.0 days
same,"Duration of 1st Episode, Median","Baseline PGA = 3, Overall",197.0 days
same,"Duration of 1st Success, Mean (SD)","Baseline PGA = 3, Overall",68.8 (57.40) days
same,"Duration of 1st Success, Median","Baseline PGA = 3, Overall",56.0 days
same,"Duration of 2nd Episode, Mean (SD)","Baseline PGA = 3, Overall",58.8 (46.15) days
same,"Duration of 2nd Episode, Median","Baseline PGA = 3, Overall",55.0 days
same,"Duration of 2nd Success, Mean (SD)","Baseline PGA = 3, Overall",31.5 (19.15) days
same,"Duration of 2nd Success, Median","Baseline PGA = 3, Overall",28.5 days
same,"Duration of 3rd Episode, Mean (SD)","Baseline PGA = 3, Overall",55.2 (27.44) days
same,"Duration of 3rd Episode, Median","Baseline PGA = 3, Overall",57.0 days
same,"Duration of 3rd Success, Mean (SD)","Baseline PGA = 3, Overall",28.0 (NE) days
same,"Duration of 3rd Success, Median","Baseline PGA = 3, Overall",28.0 days
same,"Duration of 4th Episode, Mean (SD)","Baseline PGA = 3, Overall",1.0 (NE) days
same,"Duration of 4th Episode, Median","Baseline PGA = 3, Overall",1.0 days
same,"Duration of Last Episode, Mean (SD)","Baseline PGA = 3, Overall",175.4 (98.29) days
same,"Duration of Last Episode, Median","Baseline PGA = 3, Overall",197.0 days
same,"Duration of Last Success, Mean (SD)","Baseline PGA = 3, Overall",64.1 (58.23) days
same,"Duration of Last Success, Median","Baseline PGA = 3, Overall",51.0 days
same,"Total Duration of Treatment Episodes, Mean (SD)","Baseline PGA = 3, Overall",187.9 (90.62) days
same,"Total Duration of Treatment Episodes, Median","Baseline PGA = 3, Overall",198.0 days
same,"Total Duration of Treatment Success, Mean (SD)","Baseline PGA = 3, Overall",75.5 (57.18) days
same,"Total Duration of Treatment Success, Median","Baseline PGA = 3, Overall",64.0 days
same,"Average Duration of Episodes, Mean (SD)",[3],184.7 (96.36) days
same,"Average Duration of Episodes, Median",[3],198.0 days
same,"Average Duration of Treatment Success, Mean (SD)",[3],63.9 (54.43) days
same,"Average Duration of Treatment Success, Median",[3],48.3 days
same,"Duration of 1st Episode, Mean (SD)",[3],187.1 (95.90) days
same,"Duration of 1st Episode, Median",[3],198.0 days
same,"Duration of 1st Success, Mean (SD)",[3],62.6 (55.19) days
same,"Duration of 1st Success, Median",[3],43.0 days
same,"Duration of 2nd Episode, Mean (SD)",[3],68.2 (77.66) days
same,"Duration of 2nd Episode, Median",[3],30.0 days
same,"Duration of 2nd Success, Mean (SD)",[3],57.0 (NE) days
same,"Duration of 2nd Success, Median",[3],57.0 days
same,"Duration of Last Episode, Mean (SD)",[3],182.2 (99.93) days
same,"Duration of Last Episode, Median",[3],198.0 days
same,"Duration of Last Success, Mean (SD)",[3],65.2 (54.03) days
same,"Duration of Last Success, Median",[3],56.0 days
same,"Total Duration of Treatment Episodes, Mean (SD)",[3],190.8 (95.50) days
same,"Total Duration of Treatment Episodes, Median",[3],200.0 days

# Reference: patent US20220395472A1 (Dermavant Sciences GmbH, priority 2021, published 2022)
